Results taken from ChEMBL document CHEMBL1123958, “Synthesis and antiviral properties of (E)-5-(2-bromovinyl)-2'-deoxycytidine-related compounds” (J Med Chem, 1988).

Key:
Human alphaherpesvirus 2 [1] = assay: Concentration required to reduce HSV-2 virus induced cytopathogenicity in rabbit cell kidney culture (G cells); format: functional, organism-based
[2] = test system: Vesicular stomatitis virus; assay: Concentration required to reduce vesicular stomatitis virus induced cytopathogenicity in rabbit cell kidney culture; format: functional, organism-based
Human alphaherpesvirus 1 [3] = assay: Concentration required to reduce HSV-1 virus induced cytopathogenicity in rabbit cell kidney culture (KOS cells); format: functional, organism-based
Human alphaherpesvirus 1 [4] = assay: Concentration required to reduce HSV-1 virus induced cytopathogenicity in rabbit cell kidney culture (McIntyre cells); format: functional, organism-based
Human alphaherpesvirus 1 [5] = assay: Concentration required to reduce HSV-1 virus induced cytopathogenicity in rabbit cell kidney culture (F cells); format: functional, organism-based
Human alphaherpesvirus 2 [6] = assay: Concentration required to reduce HSV-2 virus induced cytopathogenicity in rabbit cell kidney culture (Lyons cells); format: functional, organism-based
Human alphaherpesvirus 2 [7] = assay: Concentration required to reduce HSV-2 virus induced cytopathogenicity in rabbit cell kidney culture (196 cells); format: functional, organism-based
Oryctolagus cuniculus [8] = species: Oryctolagus cuniculus; assay: Minimum cytotoxic concentration causing microscopically detectable alteration of normal cell morphology of rabbit kideny cells; format: functional; parameters: unit not given here
Oryctolagus cuniculus [9] = species: Oryctolagus cuniculus; assay: Minimum cytotoxic concentration causing microscopically detectable alteration of normal cell morphology of rabbit kidney cells; format: functional

In the case of `Cc1cn(C2CC(O)C(CCl)O2)c(=O)nc1-n1cncn1` (stereo not drawn), the Concentration (Human alphaherpesvirus 2 [1]) is reported as > 10 µg/mL, the Concentration [2] is reported as > 10 µg/mL and the Concentration (Human alphaherpesvirus 1 [3]) is reported as > 10 µg/mL. The Concentration (Human alphaherpesvirus 1 [4]) was > 10 µg/mL, the Concentration (Human alphaherpesvirus 1 [5]) was > 10 µg/mL and the Concentration (Human alphaherpesvirus 2 [6]) was > 10 µg/mL. The Concentration (Human alphaherpesvirus 2 [7]) was > 10 µg/mL and the MCC (Oryctolagus cuniculus [8]) was >10.

In the case of `O=c1nc(-n2cncn2)c(/C=C/Br)cn1C1CC(O)C(CCl)O1` (stereo not drawn), the Concentration (Human alphaherpesvirus 2 [1]) is reported as > 100 µg/mL, the Concentration [2] is reported as > 100 µg/mL and the Concentration (Human alphaherpesvirus 1 [3]) is reported as 70 µg/mL. For the same compound, the Concentration (Human alphaherpesvirus 1 [4]) was > 100 µg/mL, the Concentration (Human alphaherpesvirus 1 [5]) was > 100 µg/mL and the Concentration (Human alphaherpesvirus 2 [6]) was > 100 µg/mL. For the same compound, the Concentration (Human alphaherpesvirus 2 [7]) was > 100 µg/mL and the MCC (Oryctolagus cuniculus [8]) was >100.

In the case of `O=c1nc(-n2cncn2)c(/C=C/Br)cn1[C@H]1C[C@H](O)[C@@H](CO)O1`, the Concentration (Human alphaherpesvirus 2 [1]) is reported as 20 µg/mL, the Concentration [2] is reported as > 200 µg/mL and the Concentration (Human alphaherpesvirus 1 [3]) is reported as 0.07 µg/mL. For the same compound, the Concentration (Human alphaherpesvirus 1 [4]) was 0.1 µg/mL, the Concentration (Human alphaherpesvirus 1 [5]) was 0.07 µg/mL and the Concentration (Human alphaherpesvirus 2 [6]) was 70 µg/mL. For the same compound, the Concentration (Human alphaherpesvirus 2 [7]) was > 200 µg/mL.

With `CC(=O)OC[C@H]1O[C@@H](n2cc(/C=C/Br)c(-n3cncn3)nc2=O)C[C@@H]1OC(C)=O` the Concentration (Human alphaherpesvirus 2 [1]) was 20 µg/mL, the Concentration [2] was > 200 µg/mL and the Concentration (Human alphaherpesvirus 1 [3]) was 0.1 µg/mL. It also gave a Concentration (Human alphaherpesvirus 1 [4]) of 0.07 µg/mL, a Concentration (Human alphaherpesvirus 1 [5]) of 0.2 µg/mL and a Concentration (Human alphaherpesvirus 2 [6]) of 20 µg/mL. It also gave a Concentration (Human alphaherpesvirus 2 [7]) of 20 µg/mL.

With `CC(=O)OC[C@H]1O[C@@H](n2cc(C)c(-n3cncn3)nc2=O)C[C@@H]1OC(C)=O` the Concentration (Human alphaherpesvirus 2 [1]) was > 40 µg/mL, the Concentration [2] was > 40 µg/mL and the Concentration (Human alphaherpesvirus 1 [3]) was > 40 µg/mL. The Concentration (Human alphaherpesvirus 1 [4]) was > 40 µg/mL, the Concentration (Human alphaherpesvirus 1 [5]) was > 40 µg/mL and the Concentration (Human alphaherpesvirus 2 [6]) was > 40 µg/mL. The Concentration (Human alphaherpesvirus 2 [7]) was > 40 µg/mL.

For `Cc1cn([C@H]2C[C@H](O)[C@@H](CO)O2)c(=O)nc1-n1cncn1`, the Concentration (Human alphaherpesvirus 2 [1]) was 20 µg/mL, the Concentration [2] was > 40 µg/mL and the Concentration (Human alphaherpesvirus 1 [3]) was > 40 µg/mL. The Concentration (Human alphaherpesvirus 1 [4]) was 20 µg/mL, the Concentration (Human alphaherpesvirus 1 [5]) was > 40 µg/mL and the Concentration (Human alphaherpesvirus 2 [6]) was 20 µg/mL. The Concentration (Human alphaherpesvirus 2 [7]) was 20 µg/mL.

With `CC(=O)OC[C@H]1O[C@@H](n2cc(/C=C/Br)c(=O)[nH]c2=O)C[C@@H]1OC(C)=O` the Concentration (Human alphaherpesvirus 2 [1]) was 20 µg/mL, the Concentration [2] was > 300 µg/mL and the Concentration (Human alphaherpesvirus 1 [3]) was 0.1 µg/mL. For the same compound, the Concentration (Human alphaherpesvirus 1 [4]) was 0.2 µg/mL, the Concentration (Human alphaherpesvirus 1 [5]) was 0.1 µg/mL and the Concentration (Human alphaherpesvirus 2 [6]) was 40 µg/mL. The Concentration (Human alphaherpesvirus 2 [7]) was 100 µg/mL and the MCC (Oryctolagus cuniculus [8]) was >300.

`O=c1[nH]c(=O)n([C@H]2C[C@H](O)[C@@H](CO)O2)cc1/C=C/Br` [BRIVUDINE] was tested, and the Concentration (Human alphaherpesvirus 2 [1]) was 2 µg/mL, the Concentration [2] was > 400 µg/mL and the MCC (Oryctolagus cuniculus [9]) was >400. The Concentration (Human alphaherpesvirus 1 [3]) was 0.02 µg/mL, the Concentration (Human alphaherpesvirus 1 [4]) was 0.02 µg/mL and the Concentration (Human alphaherpesvirus 1 [5]) was 0.02 µg/mL. For the same compound, the Concentration (Human alphaherpesvirus 2 [6]) was 7 µg/mL and the Concentration (Human alphaherpesvirus 2 [7]) was 30 µg/mL.

In the case of `Nc1nc(=O)n([C@H]2C[C@H](O)[C@@H](CO)O2)cc1/C=C/Br`, the Concentration (Human alphaherpesvirus 2 [1]) is reported as 20 µg/mL, the Concentration [2] is reported as > 400 µg/mL and the Concentration (Human alphaherpesvirus 1 [3]) is reported as 0.1 µg/mL. For the same compound, the Concentration (Human alphaherpesvirus 1 [4]) was 0.2 µg/mL, the Concentration (Human alphaherpesvirus 1 [5]) was 0.2 µg/mL and the Concentration (Human alphaherpesvirus 2 [6]) was > 400 µg/mL. For the same compound, the Concentration (Human alphaherpesvirus 2 [7]) was > 400 µg/mL and the MCC (Oryctolagus cuniculus [8]) was >400.
